The target in this assay is CDK12 (Homo sapiens, UniProt Q9NYV4). As to the kind of experiment: Biochemical assay for CDK12 (LANCE TR-FRET, IC50 determination). The following applies: for IC50: CDK12, IC50 class; for inhibition at 10 µM: read-out: CDK12 % Inhibition @ 10 μM. In short, it runs like this: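 30 nM CDK12 phosphorylated 100 nM ULight-4E-BP1 (Thr37/Thr46) peptide at 100 µM ATP, as printed, in HEPES pH 7.5 buffer with MgCl2 and DTT. Compound and enzyme were preincubated 60 min, then reacted 60 min at room temperature before stopping with EDTA and Eu anti-phospho antibody. TR-FRET 665/615 ratio gave sigmoidal IC50 fits.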
CDK12, sequence (Q9NYV4 whole entry): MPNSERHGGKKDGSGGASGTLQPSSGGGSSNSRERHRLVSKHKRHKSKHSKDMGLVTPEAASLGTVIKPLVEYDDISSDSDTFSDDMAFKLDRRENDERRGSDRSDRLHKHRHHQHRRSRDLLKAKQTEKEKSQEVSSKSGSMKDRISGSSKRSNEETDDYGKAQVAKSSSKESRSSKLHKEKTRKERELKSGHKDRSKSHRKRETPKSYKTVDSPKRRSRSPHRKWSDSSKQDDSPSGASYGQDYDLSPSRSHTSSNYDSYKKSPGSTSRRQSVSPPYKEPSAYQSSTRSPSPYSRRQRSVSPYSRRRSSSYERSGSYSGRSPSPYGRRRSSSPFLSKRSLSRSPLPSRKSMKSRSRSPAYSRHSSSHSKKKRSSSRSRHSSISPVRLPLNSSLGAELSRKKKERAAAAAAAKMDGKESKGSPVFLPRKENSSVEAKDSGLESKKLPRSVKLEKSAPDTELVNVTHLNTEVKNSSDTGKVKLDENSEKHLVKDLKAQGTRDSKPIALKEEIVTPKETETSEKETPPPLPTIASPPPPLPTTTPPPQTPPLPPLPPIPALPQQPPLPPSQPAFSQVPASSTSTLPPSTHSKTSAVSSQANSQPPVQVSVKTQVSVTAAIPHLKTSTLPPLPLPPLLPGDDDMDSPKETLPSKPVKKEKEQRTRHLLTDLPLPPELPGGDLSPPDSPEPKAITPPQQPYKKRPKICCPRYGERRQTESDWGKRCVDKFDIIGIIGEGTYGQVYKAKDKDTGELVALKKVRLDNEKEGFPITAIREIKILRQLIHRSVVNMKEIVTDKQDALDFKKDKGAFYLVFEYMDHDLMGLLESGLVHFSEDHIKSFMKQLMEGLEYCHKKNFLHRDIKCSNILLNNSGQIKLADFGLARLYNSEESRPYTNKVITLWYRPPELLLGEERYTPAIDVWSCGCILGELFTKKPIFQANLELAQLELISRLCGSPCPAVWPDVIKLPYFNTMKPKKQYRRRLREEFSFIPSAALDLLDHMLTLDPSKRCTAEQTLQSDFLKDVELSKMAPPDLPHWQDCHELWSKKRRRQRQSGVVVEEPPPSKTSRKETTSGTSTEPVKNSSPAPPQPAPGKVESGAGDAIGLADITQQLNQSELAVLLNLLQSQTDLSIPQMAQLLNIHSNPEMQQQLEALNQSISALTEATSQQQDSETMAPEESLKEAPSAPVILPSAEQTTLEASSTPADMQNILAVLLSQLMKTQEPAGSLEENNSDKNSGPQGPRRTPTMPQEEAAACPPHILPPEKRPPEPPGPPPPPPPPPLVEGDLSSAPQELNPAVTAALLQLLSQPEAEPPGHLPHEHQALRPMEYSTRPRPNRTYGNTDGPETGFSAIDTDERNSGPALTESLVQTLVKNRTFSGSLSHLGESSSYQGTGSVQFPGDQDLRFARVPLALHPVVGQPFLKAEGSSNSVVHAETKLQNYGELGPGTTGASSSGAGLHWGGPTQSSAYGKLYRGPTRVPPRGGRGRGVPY
CDK12, sequence (O75909 whole entry partner): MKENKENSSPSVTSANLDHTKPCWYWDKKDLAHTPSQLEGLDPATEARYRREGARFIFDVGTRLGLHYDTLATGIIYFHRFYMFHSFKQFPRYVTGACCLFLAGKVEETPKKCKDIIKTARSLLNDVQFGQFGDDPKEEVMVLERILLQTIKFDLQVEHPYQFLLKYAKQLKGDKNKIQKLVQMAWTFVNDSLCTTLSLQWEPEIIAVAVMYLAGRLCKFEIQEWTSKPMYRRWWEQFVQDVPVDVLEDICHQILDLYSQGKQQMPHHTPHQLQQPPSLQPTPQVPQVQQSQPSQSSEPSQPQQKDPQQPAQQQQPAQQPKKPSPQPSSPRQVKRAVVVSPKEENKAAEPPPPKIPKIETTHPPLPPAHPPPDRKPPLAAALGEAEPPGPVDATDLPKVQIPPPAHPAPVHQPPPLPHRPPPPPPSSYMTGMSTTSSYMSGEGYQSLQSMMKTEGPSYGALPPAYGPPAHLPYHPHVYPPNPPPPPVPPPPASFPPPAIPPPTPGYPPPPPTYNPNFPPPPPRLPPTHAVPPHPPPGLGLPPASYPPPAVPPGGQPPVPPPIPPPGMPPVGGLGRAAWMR
For orientation: In TR-FRET formats the signal depends on donor and acceptor labels being close together.

Read-outs that look alike come from different tables or passages of the source. A value given as a limit tells only on which side of the number the result lay.

As to `COc1cc(NC(=O)Cc2ccc(C3CCN(C#N)CC3C)nc2)ncc1Cl` (centres unmarked) [Compound 60, N-(5-chloro-4-methoxypyridin-2-yl)-2-(6-(1-cyano-3-methylpiperidin-4-yl)pyridin-3-yl)acetamide], the IC50 (in general, the concentration that gives 50% inhibition) (read-out: IC50 μM (in range)) lay within 0.01 to 0.1 µM. Further, the inhibition (commonly the drop in the measured response relative to a control, in per cent) at 10 µM (compound at 10 μM) worked out at 87%.
On the same counts, the results for `N#CN1CCC=C(c2ccc(CC(=O)Nc3cc(OC4CCOCC4)c(Cl)cn3)cn2)C1` [Compound 61, N-(5-chloro-4-((tetrahydro-2H-pyran-4-yl)oxy)pyridin-2-yl)-2-(1′-cyano-1′,2′,5′,6′-tetrahydro-[2,3′-bipyridin]-5-yl)acetamide] are less than 0.01 µM and 89%.
For `CN1C2CCC1CC(Oc1cc(NC(=O)Cc3ccc(C4=CCCN(C#N)C4)nc3)ncc1Cl)C2` (centres unmarked) [Compound 62, N-(5-chloro-4-((8-methyl-8-azabicyclo[3.2.1]octan-3-yl)oxy)pyridin-2-yl)-2-(1′-cyano-1′,2′,5′,6′-tetrahydro-[2,3′-bipyridin]-5-yl)acetamide], the IC50 (read-out: IC50 μM (in range)) is less than 0.01 µM. For the setting “compound at 10 μM”, the inhibition at 10 µM came out at 96%.
On the same counts, the results for `CC1CC(Oc2cc(NC(=O)Cc3ccc(C4=CCCN(C#N)C4)nc3)ncc2Cl)CCN1C` (centres unmarked) [Compound 63, N-(5-chloro-4-((1,2-dimethylpiperidin-4-yl)oxy)pyridin-2-yl)-2-(1′-cyano-1′,2′,5′,6′-tetrahydro-[2,3′-bipyridin]-5-yl)acetamide] are less than 0.01 µM and 92%.
Regarding `COc1cc(NC(=O)Cc2ccc(C3=CCN(C#N)C(C)C3)nc2)ncc1Cl` (centres unmarked) [Compound 65, N-(5-chloro-4-methoxypyridin-2-yl)-2-(1′-cyano-2′-methyl-1′,2′,3′,6′-tetrahydro-[2,4′-bipyridin]-5-yl)acetamide], the IC50 (read-out: IC50 μM (in range)) is less than 0.01 µM. Further, for the setting “compound at 10 μM”, the inhibition at 10 µM came to 87%.
Regarding `CN1CC2(CC(Oc3cc(NC(=O)Cc4ccc(C5=CCCN(C#N)C5)nc4)ncc3Cl)C2)C1` [Compound 69, N-(5-chloro-4-((2-methyl-2-azaspiro[3.3]heptan-6-yl)oxy)pyridin-2-yl)-2-(1′-cyano-1′,2′,5′,6′-tetrahydro-[2,3′-bipyridin]-5-yl)acetamide], the IC50 (read-out: IC50 μM (in range)) was less than 0.01 µM. For the setting “compound at 10 μM”, the inhibition at 10 µM stood at 93%.
With `COc1cc(NC(=O)Cc2ccc(C3=CCN(C#N)CC3C)nc2)ncc1Cl` (centres unmarked) [Compound 70, N-(5-chloro-4-methoxypyridin-2-yl)-2-(1′-cyano-3′-methyl-1′,2′,3′,6′-tetrahydro-[2,4′-bipyridin]-5-yl)acetamide], where the note is “read-out: IC50 μM (in range)”, the IC50 was less than 0.01 µM. Moreover, the inhibition at 10 µM (compound at 10 μM) was determined as 94%.
Regarding `COc1cc(NC(=O)Cc2ccc(C3=CC4CCC(C3)N4C#N)nc2)ncc1Cl` (centres unmarked) [Compound 73, N-(5-chloro-4-methoxypyridin-2-yl)-2-(6-(8-cyano-8-azabicyclo[3.2.1]oct-2-en-3-yl)pyridin-3-yl)acetamide], the IC50 (read-out: IC50 μM (in range)) was less than 0.01 µM. In addition, the inhibition at 10 µM (compound at 10 μM) was determined as 87%.
On the same counts, the results for `COc1cc(NC(=O)Cc2ccc(C3CC4CCC(C3)N4C#N)nc2)ncc1Cl` (centres unmarked) [Compound 74, N-(5-chloro-4-methoxypyridin-2-yl)-2-(6-(8-cyano-8-azabicyclo[3.2.1]octan-3-yl)pyridin-3-yl)acetamide] are less than 0.01 µM and 100%.
Regarding `COc1cc(NC(=O)Cc2ccc(C3=CC4CN(C#N)CC4C3)nc2)ncc1Cl` (centres unmarked) [Compound 75, N-(5-chloro-4-methoxypyridin-2-yl)-2-(6-(2-cyano-1,2,3,3a,4,6a-hexahydrocyclopenta[c]pyrrol-5-yl)pyridin-3-yl)acetamide], the 50% inhibitory concentration (IC50) (read-out: IC50 μM (in range)) was less than 0.01 µM. The inhibition at 10 µM (compound at 10 μM) was 96%.
For `COc1cc(NC(=O)Cc2ccc(C3CC4CN(C#N)CC4C3)nc2)ncc1Cl` (centres unmarked) [Compound 76, N-(5-chloro-4-methoxypyridin-2-yl)-2-(6-(2-cyanooctahydrocyclopenta[c]pyrrol-5-yl)pyridin-3-yl)acetamide], the IC50 (read-out: IC50 μM (in range)) is less than 0.01 µM. The inhibition at 10 µM (compound at 10 μM) was 90%.
As for `CN(C)C(=O)Oc1cc(NC(=O)Cc2ccc(C3=CCCN(C#N)C3)nc2)ncc1Cl` [Compound 77, 5-chloro-2-(2-(1′-cyano-1′,2′,5′,6′-tetrahydro-[2,3′-bipyridin]-5-yl)acetamido)pyridin-4-yl dimethylcarbamate], the inhibition at 10 µM is 79%. This compound came in with an IC50 (IC50 μM (in range)) of less than 0.01 µM.
Consider `COc1cc(NC(=O)Cc2ccc(C3CCCN(C#N)C3)nc2)ncc1Cl` (centres unmarked) [Compound 78, N-(5-chloro-4-methoxypyridin-2-yl)-2-(6-(1-cyanopiperidin-3-yl)pyridin-3-yl)acetamide], for which, under “read-out: IC50 μM (in range)”, the IC50 lay within 0.01 to 0.1 µM. The inhibition at 10 µM (compound at 10 μM) turned out to be 87%.
`COc1cc(NC(=O)Cc2ccc(C3=CC4CCC3CN4C#N)nc2)ncc1Cl` (centres unmarked) [Compound 81, N-(5-chloro-4-methoxypyridin-2-yl)-2-(6-(2-cyano-2-azabicyclo[2.2.2]oct-5-en-5-yl)pyridin-3-yl)acetamide]: for the setting “read-out: IC50 μM (in range)”, the IC50 was less than 0.01 µM. The inhibition at 10 µM (compound at 10 μM) was 87%.
For `CNC(=O)C(C)Oc1cc(NC(=O)Cc2ccc(C3CCN(C#N)CC3)nc2)ncc1Cl` (centres unmarked) [Compound 82, 2-((5-chloro-2-(2-(6-(1-cyanopiperidin-4-yl)pyridin-3-yl)acetamido)pyridin-4-yl)oxy)-N-methylpropanamide], the half-maximal inhibitory concentration (IC50) (read-out: IC50 μM (in range)) is 0.01 to 0.1 µM. Further, for the setting “compound at 10 μM”, the inhibition at 10 µM is 87%.
With `CNC(=O)C(C)Oc1cc(NC(=O)Cc2ccc(C3CCCN(C#N)C3)nc2)ncc1Cl` (centres unmarked) [Compound 85, 2-((5-chloro-2-(2-(6-(1-cyanopiperidin-3-yl)pyridin-3-yl)acetamido)pyridin-4-yl)oxy)-N-methylpropanamide], the IC50 (read-out: IC50 μM (in range)) fell in the range of 0.01 to 0.1 µM. For the same compound, the inhibition at 10 µM (compound at 10 μM) came to 92%.
For the compound `N#CN1CCCC(c2ccc(CC(=O)Nc3cc(O[C@@H]4CCOC4)c(Cl)cn3)cn2)C1` (stereo partly drawn) [Compound 92, N-(5-chloro-4-(((R)-tetrahydrofuran-3-yl)oxy)pyridin-2-yl)-2-(6-(1-cyanopiperidin-3-yl)pyridin-3-yl)acetamide], the IC50 (read-out: IC50 μM (in range)) lay in the range of 0.01 to 0.1 µM. Further, the inhibition at 10 µM (compound at 10 μM) amounted to 90%.
For `N#CN1CCCC(c2ccc(CC(=O)Nc3cc(O[C@H]4CCOC4)c(Cl)cn3)cn2)C1` (stereo partly drawn) [Compound 95, N-(5-chloro-4-(((S)-tetrahydrofuran-3-yl)oxy)pyridin-2-yl)-2-(6-(1-cyanopiperidin-3-yl)pyridin-3-yl)acetamide], the IC50 (read-out: IC50 μM (in range)) was in the range of 0.01 to 0.1 µM. Moreover, the inhibition at 10 µM (compound at 10 μM) amounted to 90%.
With `N#CN1CCC(c2ccc(CC(=O)Nc3cc(O[C@@H]4CCOC4)c(Cl)cn3)cn2)CC1` [Compound 98, (R)-N-(5-chloro-4-((tetrahydrofuran-3-yl)oxy)pyridin-2-yl)-2-(6-(1-cyanopiperidin-4-yl)pyridin-3-yl)acetamide], the IC50 (read-out: IC50 μM (in range)) is 0.01 to 0.1 µM. In addition, the inhibition at 10 µM (compound at 10 μM) worked out at 87%.
`N#CN1CCC(c2ccc(CC(=O)Nc3cc(O[C@H]4CCOC4)c(Cl)cn3)cn2)CC1` [Compound 99, (S)-N-(5-chloro-4-((tetrahydrofuran-3-yl)oxy)pyridin-2-yl)-2-(6-(1-cyanopiperidin-4-yl)pyridin-3-yl)acetamide]: the IC50 (read-out: IC50 μM (in range)) was 0.01 to 0.1 µM. In addition, the inhibition at 10 µM (compound at 10 μM) was 95%.
As for `CN(C)C(=O)Oc1cc(NC(=O)Cc2ccc(C3=CCN(C#N)CC3)nc2)ncc1Cl` [Compound 100, 5-chloro-2-(2-(1′-cyano-1′,2′,3′,6′-tetrahydro-[2,4′-bipyridin]-5-yl)acetamido)pyridin-4-yl dimethylcarbamate], the inhibition at 10 µM worked out at 77%. In addition, where the note is “IC50 μM (in range)”, the IC50 was in the range of 0.01 to 0.1 µM.
Regarding `CN(C)C(=O)Oc1cc(NC(=O)Cc2ccc(C3CCN(C#N)CC3)nc2)ncc1Cl` [Compound 101, 5-chloro-2-(2-(6-(1-cyanopiperidin-4-yl)pyridin-3-yl)acetamido)pyridin-4-yl dimethylcarbamate], the inhibition at 10 µM was found to be 86%. In addition, under “IC50 μM (in range)”, the IC50 is more than 0.1 µM.
On to `N#CN1CCC=C(c2ccc(CC(=O)Nc3ccccn3)cn2)C1` [Compound 102, 2-(1′-cyano-1′,2′,5′,6′-tetrahydro-[2,3′-bipyridin]-5-yl)-N-(pyridin-2-yl)acetamide], for which the half-inhibitory concentration (IC50) (read-out: IC50 μM (in range)) is more than 0.1 µM. For the same compound, the inhibition at 10 µM (compound at 10 μM) came out at 87%.
`N#CN1CCC=C(c2ccc(CC(=O)Nc3ccc(F)cn3)cn2)C1` [Compound 103, 2-(1′-cyano-1′,2′,5′,6′-tetrahydro-[2,3′-bipyridin]-5-yl)-N-(5-fluoropyridin-2-yl)acetamide]: where the note is “read-out: IC50 μM (in range)”, the IC50 lay within 0.01 to 0.1 µM. The inhibition at 10 µM (compound at 10 μM) was determined as 98%.
The corresponding values for `Cc1ccc(NC(=O)Cc2ccc(C3=CCCN(C#N)C3)nc2)nc1` [Compound 104, 2-(1′-cyano-1′,2′,5′,6′-tetrahydro-[2,3′-bipyridin]-5-yl)-N-(5-methylpyridin-2-yl)acetamide] are 0.01 to 0.1 µM and 79%.
On to `N#CN1CCC=C(c2ccc(CC(=O)Nc3cc(Cl)c(Cl)cn3)cn2)C1` [Compound 105, 2-(1′-cyano-1′,2′,5′,6′-tetrahydro-[2,3′-bipyridin]-5-yl)-N-(4,5-dichloropyridin-2-yl)acetamide], for which the IC50 (read-out: IC50 μM (in range)) is less than 0.01 µM. Besides, the inhibition at 10 µM (compound at 10 μM) was determined as 100%.
Regarding `N#CN1CCC=C(c2ccc(CC(=O)Nc3ccc(C4CC4)cn3)cn2)C1` [Compound 106, 2-(1′-cyano-1′,2′,5′,6′-tetrahydro-[2,3′-bipyridin]-5-yl)-N-(5-cyclopropylpyridin-2-yl)acetamide], the IC50 (read-out: IC50 μM (in range)) was less than 0.01 µM. For the same compound, where the note is “compound at 10 μM”, the inhibition at 10 µM is 90%.
The corresponding values for `CSc1ccc(NC(=O)Cc2ccc(C3=CCCN(C#N)C3)nc2)nc1` [Compound 107, 2-(1′-cyano-1′,2′,5′,6′-tetrahydro-[2,3′-bipyridin]-5-yl)-N-(5-(methylthio)pyridin-2-yl)acetamide] are 0.01 to 0.1 µM and 95%.

(Values after patent US20260000692A1, “Substituted N-(Pyridin-2-yl)Acetamide Derivatives as CDK12/13 Inhibitors” (Aurigene Oncology Limited, priority 2022, published 2026).)
